According to patent US20060089390A1, “3-benzoyl-2,4,5-substituted pyridine derivatives or salts thereof and bactericides containing the same” (Ishihara Sangyo Kaisha, Ltd., priority 2002, published 2006):
Read-outs that look alike come from different tables or passages of the source.

Assays:
wheat powdery mildew = experiment: Test on preventive effect against wheat powdery mildew; assay type: in vivo, Wheat (cultivar: Norin-61-go); conditions: Triticum aestivum, foliar spray before inoculation, examined 6 to 8 days after inoculation, read-out: controlling effects as compared with non-treated cases (area of sporogony)
Protocol: Tests on Preventive Effect Against Wheat Powdery Mildew Wheat (cultivar: […] After the drug solution dried, the wheat was inoculated by spreading with conidiospore of fungi of powdery mildew, and the wheat was kept in a thermostatic chamber at 20° C. From 6 to 8 days after the inoculation, the area of sporogony was examined.

cucumber powdery mildew [1] = experiment: Test on rainfastness of effect against cucumber powdery mildew; assay type: in vivo, Cucumber (cultivar: Suyo); conditions: Cucumis sativus, topical, 500 gai/ha
Protocol: Cucumber (cultivar: […] A day after the treatment, 10 mm/hr of artificial rainfall was applied for 1 hour. Together with seedlings not subjected to rainfall treatment (preventive), the cucumber was sprayed and inoculated with a conidiospore suspension of fungi of powdery mildew, and the cucumber was kept in a thermostatic chamber at 20° C. From 6 to 11 days after the inoculation, the number of lesions was examined, and the controlling rate was calculated by comparison with the non-treated cases. The results are shown in Table 5.

cucumber powdery mildew [2] = experiment: Test on preventive effect against cucumber powdery mildew; assay type: in vivo, Cucumber (cultivar: Suyo); conditions: Cucumis sativus, foliar spray before inoculation, examined 6 to 11 days after inoculation, read-out: controlling effects as compared with non-treated cases (area of sporogony)
Protocol: Test on Preventive Effect Against Cucumber Powdery Mildew Cucumber (cultivar: […] After the drug solution dried, the cucumber was sprayed and inoculated with a conidiospore suspension of fungi of powdery mildew, and the cucumber was kept in a thermostatic chamber at 20° C. From 6 to 11 days after the inoculation, the area of sporogony was examined.

rice blast = experiment: whole plant or invertebrate; assay type: in vivo, Rice (cultivar: Nihonbare); conditions: Pyricularia oryzae, foliar, read-out: controlling effects as compared with non-treated cases (number of lesions)
[3] = 10 mm/hr artificial rainfall for 1 hour a day after treatment, read-out: Controlling rate of cucumber powdery mildew (%) Rainfall
[4] = no rainfall treatment (preventive), read-out: Controlling rate of cucumber powdery mildew (%) Preventive

Structure (SMILES) | pest or weed control at 125 ppm (wheat powdery mildew) [%] | pest or weed control at 500 g/ha (cucumber powdery mildew [1]; [3]) [%] | pest or weed control at 500 g/ha (cucumber powdery mildew [1]; [4]) [%] | melting point [°C] | pest or weed control at 125 ppm (cucumber powdery mildew [2]) [%] | pest or weed control at 500 ppm (rice blast) [%]
COc1cc(C)c(C(=O)c2c(OC)ncc(Cl)c2Br)c(OC)c1OC [Compound No. 1-1, 3-(2,3,4-trimethoxy-6-methylbenzoyl)-4-bromo-5-chloro-2-methoxypyridine] | ≥ 90 | 100 | 100 | 92 to 94 | ≥ 90 | ≥ 90
COc1cc(C)c(C(=O)c2c(OC)ncc(Cl)c2Cl)c(OC)c1OC [Compound No. 1-15, 3-(2,3,4-trimethoxy-6-methylbenzoyl)-4,5-dichloro-2-methoxypyridine] | ≥ 90 | 100 | 100 | 84 to 86 | ≥ 90 | ≥ 90
